Literature values as cited in patent US20030060503A1, “Nutritional supplements for mature pets” (Juvenon, Inc., priority 2000, published 2003).
Where two headings read alike, the source gives them in different places.

What was measured:
[1] = system: carnitine-acetyl-carnitine exchange across the inner mitochondrial membrane
[2] = system: senescent myocardium
[3] = system: programmed cell death, or apoptosis; settings: through its action in the mitochondria
[4] = daily supplements of up to 200 mg for 6-12 months and 100 mg daily for up to 6 y
[5] = system: aged rats; settings: supplementation
[6] = system: oxidant production; settings: carnitine supplementation
[7] = system: skeletal muscle; settings: older individuals (40-73), 20 g/day, one week
[8] = system: human lymphocytes

In the case of `C[N+](C)(C)C[C@H](O)CC(=O)[O-]` [L-carnitine], the “age-related decrease of carnitine-acetyl-carnitine exchange activity” value [1] is given as “slow or reverse this age-related dysfunction”.

In the case of `COC1=C(OC)C(=O)C(C/C=C(\C)CC/C=C(\C)CC/C=C(\C)CC/C=C(\C)CC/C=C(\C)CC/C=C(\C)CC/C=C(\C)CC/C=C(\C)CC/C=C(\C)CCC=C(C)C)=C(C)C1=O` [Q10, coenzyme Q10], the “recovery of function in older hearts” value [2] is given as “corrected the age-specific diminished recovery of function in older hearts”, the “tolerance of senescent myocardium to aerobic and ischemic stress” value ([2]; human atrial tissue and rats) is given as “improves the tolerance of the senescent myocardium to aerobic and ischemic stress” and the “programmed cell death (apoptosis)” value [3] is given as “appears to block programmed cell death”. For the same compound, the adverse effects [4] was “No important adverse effects”.

For `O=C(O)CCCC[C@@H]1CCSS1` [R-α-lipoic acid], the ambulatory activity ([5]; aged rats) is given as “triple the ambulatory activity of aged rats”, the “age-related increase in oxidants” value [5] is given as “significantly lower the age-related increase in oxidants” and the “glutathione and ascorbic acid levels” value [5] is given as “restore glutathione and ascorbic acid levels to youthful levels”. The mitochondrial membrane potential [5] was “restore the age-related decline in mitochondrial membrane potential” and the oxygen consumption [5] was “reverse the age-related decrease in oxygen consumption”.

For `C[N+](C)(C)CC(O)CC(=O)[O-]` (centres unmarked) [carnitine], the cell antioxidants [6] is listed as “decreased cell antioxidants markedly” and the “increase in oxidant production” value [6] is listed as 30%.

For `CN(CC(=O)O)C(=N)N` [creatine], the safety (1.5 g-25 g/day for at least a year) is listed as “safe”, the adverse effects (athletes, doses up to 75 grams a day for years) is listed as “without known adverse effects, aside from weight gain” and the “skeletal muscle strength and endurance” value [7] is listed as “increased skeletal muscle strength and endurance”.

For `COc1c(O)c(C)c(C/C=C(\C)CC/C=C(\C)CC/C=C(\C)CC/C=C(\C)CC/C=C(\C)CC/C=C(\C)CC/C=C(\C)CC/C=C(\C)CC/C=C(\C)CCC=C(C)C)c(O)c1OC` [ubiquinol-10], the “oxidative damage to DNA” value [8] is listed as “appears to protect human lymphocytes from oxidative damage to DNA”.

In the case of acyl-L-carnitine, the “age-related decrease of carnitine-acetyl-carnitine exchange activity” value [1] is given as “slow or reverse this age-related dysfunction”.
